In the NIST ThermoML archive (doi:10.1021/je300557g):

Tests used:
[1] = 101.33 kPa, Liquid; for viscosity: Capillary tube (Ostwald / Ubbelohde) method; for mass density: Vibrating tube method
[2] = xn = mol fraction of the nth substance listed; conditions: 101 kPa, Liquid; for mass density: Vibrating tube method

CCO [ethanol]
[1]
Conditions | mass density [kg/m3] | viscosity [mPa·s]
293.15 K | 789.48 | 1.18
303.15 K | 781.3 | 0.981
313.15 K | 772.57 | 0.822
323.15 K | 763.65 | 0.6939

CCCC[n+]1cccc(C)c1.F[B-](F)(F)F [1-butyl-3-methylpyridinium tetrafluoroborate]
[1]
Conditions | mass density [kg/m3] | viscosity [mPa·s]
293.15 K | 1185.66 | 246.62
303.15 K | 1178.86 | 129.91
313.15 K | 1172.11 | 76.46
323.15 K | 1165.37 | 48.18

CCCC[n+]1ccccc1.F[B-](F)(F)F [1-butylpyridinium tetrafluoroborate] + CCO
[2]
Conditions | kinematic viscosity, 303.15 K [m2/s] | kinematic viscosity, 313.15 K [m2/s] | kinematic viscosity, 323.15 K [m2/s] | mass density, 303.15 K [kg/m3] | mass density, 313.15 K [kg/m3] | mass density, 323.15 K [kg/m3]
x1 = 0.0482 | 1.42e-06 | 1.29e-06 | 1.15e-06 | 843.38 | 834.98 | 826.69
x1 = 0.0945 | 1.96e-06 | 1.68e-06 | 1.41e-06 | 892.42 | 884.28 | 876.45
x1 = 0.1932 | 3.17e-06 | 2.57e-06 | 2.06e-06 | 972.49 | 964.73 | 957.44
x1 = 0.2702 | 4.37e-06 | 3.45e-06 | 2.73e-06 | 1019.05 | 1011.49 | 1004.32
x1 = 0.3959 | 7.13e-06 | 5.43e-06 | 4.24e-06 | 1076.24 | 1068.89 | 1061.7
x1 = 0.4954 | 1.03e-05 | 7.61e-06 | 5.94e-06 | 1110.49 | 1103.28 | 1096.06
x1 = 0.5999 | 1.57e-05 | 1.14e-05 | 8.55e-06 | 1139.33 | 1132.29 | 1125.08
x1 = 0.699 | 2.36e-05 | 1.65e-05 | 1.2e-05 | 1161.67 | 1154.79 | 1147.65
x1 = 0.7963 | 3.58e-05 | 2.41e-05 | 1.7e-05 | 1179.99 | 1173.24 | 1166.21
x1 = 0.8477 | 4.48e-05 | 2.95e-05 | 2.05e-05 | 1188.5 | 1181.82 | 1174.82
x1 = 0.8984 | 5.83e-05 | 3.73e-05 | 2.53e-05 | 1196.25 | 1189.62 | 1182.65
x1 = 0.9461 | 7.37e-05 | 4.58e-05 | 3.05e-05 | 1203.06 | 1196.46 | 1189.47

CO [methanol]
[1]
Conditions | mass density [kg/m3] | viscosity [mPa·s]
293.15 K | 791.24 | 0.5833
303.15 K | 781.81 | 0.507
313.15 K | 772.29 | 0.4438
323.15 K | 762.63 | 0.3873

CCCC[n+]1ccccc1.F[B-](F)(F)F [1-butylpyridinium tetrafluoroborate]
[1]
Conditions | mass density [kg/m3] | viscosity [mPa·s]
293.15 K | 1217.11 | 220.54
303.15 K | 1210.83 | 119.52
313.15 K | 1203.72 | 71.11
323.15 K | 1196.68 | 45.59

CCCC[n+]1ccc(C)cc1.F[B-](F)(F)F [1-butyl-4-methylpyridinium tetrafluoroborate]
[1]
Conditions | mass density [kg/m3] | viscosity [mPa·s]
293.15 K | 1185.92 | 284.62
303.15 K | 1179.12 | 144.68
313.15 K | 1172.12 | 85.53
323.15 K | 1165.52 | 55.53
